≈ marks a conversion by molar mass, not a printed value.
Legend:
Assay in all cases: Antibacterial activity in vitro, MIC by broth microdilution
[1] = system: S. pneumoniae Stpn_297-749 Pen R; format: cell-based, Streptococcus pneumoniae
How it was run: (§1)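 Test agents were dissolved in methanol and serially diluted two-fold in cation-adjusted Mueller-Hinton broth, which for S. pneumoniae carried 2-5% lysed horse blood. Plates were inoculated to 3×10^5–7×10^5 CFU/mL and held at 35° C. for 18-24 hours, with CO2 at 5-10% for pneumococci.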

[2] = system: S. pneumoniae Stpn_Erm 6849; format: cell-based, Streptococcus pneumoniae
How it was run: as §1

[3] = system: S. pneumoniae Stpn_280-962 Pen S; format: cell-based, Streptococcus pneumoniae
How it was run: as §1

[4] = system: S. pneumoniae Stpn_Mef S 3427; format: cell-based, Streptococcus pneumoniae
How it was run: as §1

[5] = system: S. pneumoniae Stpn_49619; format: cell-based, Streptococcus pneumoniae
How it was run: as §1

[6] = system: S. pneumoniae Stpn_Mef 5654; format: cell-based, Streptococcus pneumoniae; details: unit assumed
How it was run: as §1

[7] = system: S. pneumoniae Stpn_Erm S 4297; format: cell-based, Streptococcus pneumoniae
How it was run: as §1

[8] = system: S. epidermidis Step_f50654 Pen S; format: cell-based; details: unit assumed
How it was run: as §1

[9] = system: S. epidermidis Step_14990; format: cell-based; details: unit assumed
How it was run: as §1

[10] = system: E. faecalis Enfa_29212; format: cell-based
How it was run: as §1

[11] = system: E. coli Esco_25922; format: cell-based; details: Table 3, Strain ID M: E. coli Esco_25922; unit assumed
How it was run: as §1

[12] = system: S. pyogenes Stpy_8668; format: cell-based
How it was run: as §1

[13] = system: H. influenzae Hain_49247; format: cell-based, Haemophilus influenzae; details: unit assumed
How it was run: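 Visible-growth inhibition defined the MIC, obtained by NCCLS broth microdilution at 35° C. over 18-24 hours with a final inoculum of 3×10^5–7×10^5 CFU/mL.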

[14] = system: S. aureus Stau_29213; format: cell-based; details: Table 5, Strain ID A: S. aureus Stau_29213; unit assumed
How it was run: as §1

[15] = Table 3, Strain ID F: S. pneumoniae Stpn_297-749 Pen R
[16] = Table 3, Strain ID H: S. pneumoniae Stpn_Erm 6849, unit assumed
[17] = Table 3, Strain ID G: S. pneumoniae Stpn_280-962 Pen S
[18] = Table 3, Strain ID K: S. pneumoniae Stpn_Mef S 3427
[19] = Table 3, Strain ID E: S. pneumoniae Stpn_49619
[20] = Table 3, Strain ID J: S. pneumoniae Stpn_Mef 5654
[21] = Table 3, Strain ID I: S. pneumoniae Stpn_Erm S 4297, unit assumed
[22] = Table 3, Strain ID B: S. epidermidis Step_f50654 Pen S
[23] = Table 3, Strain ID A: S. epidermidis Step_14990
[24] = Table 3, Strain ID D: S. pyogenes Stpy_8668
[25] = Table 3, Strain ID L: H. influenzae Hain_49247
[26] = Table 3, Strain ID C: E. faecalis Enfa_29212
[27] = Table 5, Strain ID G: S. pneumoniae Stpn_297-749
[28] = Table 5, Strain ID I: S. pneumoniae Stpn_Erm 6849, unit assumed
[29] = Table 5, Strain ID H: S. pneumoniae Stpn_280-962
[30] = Table 5, Strain ID L: S. pneumoniae Stpn_Mef S 3427, unit assumed
[31] = Table 5, Strain ID F: S. pneumoniae Stpn_49619
[32] = Table 5, Strain ID K: S. pneumoniae Stpn_Mef 5654
[33] = Table 5, Strain ID J: S. pneumoniae Stpn_Erm S 4297, unit assumed
[34] = Table 5, Strain ID C: S. epidermidis Step_f50654
[35] = Table 5, Strain ID B: S. epidermidis Step_14990
[36] = Table 5, Strain ID D: E. faecalis Enfa_29212, unit assumed
[37] = Table 5, Strain ID E: S. pyogenes Stpy_8668, unit assumed
[38] = Table 5, Strain ID M: H. influenzae Hain_49247
[39] = Table 5, Strain ID I: S. pneumoniae Stpn_Erm 6849
[40] = Table 5, Strain ID E: S. pyogenes Stpy_8668

| Structure (SMILES) | MIC [1, 15] | MIC [2, 16] [µg/mL] | MIC [3, 17] | MIC [4, 18] | MIC [5, 19] | MIC [6, 20] [µg/mL] | MIC [8, 22] [µg/mL] | MIC [9, 23] [µg/mL] | MIC [11] [µg/mL] | MIC [12, 24] | MIC [13, 25] [µg/mL] | MIC [1, 27] | MIC [3, 29] | MIC [4, 30] [µg/mL] | MIC [6, 32] [µg/mL] | MIC [8, 34] [µg/mL] | MIC [9, 35] [µg/mL] | MIC [14] [µg/mL] | MIC [10, 36] [µg/mL] | MIC [13, 38] [µg/mL] | further results |
| --- | --- | --- | --- | --- | --- | --- | --- | --- | --- | --- | --- | --- | --- | --- | --- | --- | --- | --- | --- | --- | --- |
| CC[C@H]1OC(=O)[C@H](C)C(=O)[C@H](C)[C@@H](O[C@@H]2O[C@H](C)C[C@H](N(C)C)[C@H]2O)[C@@](C)(OC)C[C@@H](C)C(=O)[C@H](C)[C@@H]2[C@@H]1OC(=O)N2CCCCn1ccc2ccccc21 [Compound 4717] | ≦0.5 | 6.25 (≈ 8.12 µM) | ≦0.5 | ≦0.05 | ≦0.5 | 0.2 (≈ 0.26 µM) | 0.4 (≈ 0.519 µM) | 0.2 (≈ 0.26 µM) | > 50 | ≦0.5 | 6.25 (≈ 8.12 µM) |  |  |  |  |  |  |  |  |  | MIC [7, 21]: 0.4 µg/mL (≈ 0.519 µM); MIC ([10]; Table 3, Strain ID C: E. faecalis Enfa_29212, unit assumed): 0.1 µg/mL (≈ 0.13 µM) |
| CC[C@H]1OC(=O)[C@H](C)C(=O)[C@H](C)[C@@H](O[C@@H]2O[C@H](C)C[C@H](N(C)C)[C@H]2O)[C@@](C)(OC)C[C@@H](C)C(=O)[C@H](C)[C@@H]2[C@@H]1OC(=O)N2CCCCn1cnc(-c2ccccc2)c1 [Compound 4710] | ≦0.5 | 0.2 (≈ 0.251 µM) | ≦0.5 | ≦0.5 | ≦0.5 | 0.2 (≈ 0.251 µM) | 0.2 (≈ 0.251 µM) | 0.1 (≈ 0.125 µM) | 50 (≈ 62.7 µM) | ≦0.5 | 3.13 (≈ 3.93 µM) |  |  |  |  |  |  |  |  |  | MIC ([7]; Table 3, Strain ID I: S. pneumoniae Stpn_Erm S 4297): ≦0.05; MIC [10, 26]: ≦0.05 |
| CC[C@H]1OC(=O)[C@H](C)C(=O)[C@H](C)[C@@H](O[C@@H]2O[C@H](C)C[C@H](N(C)C)[C@H]2O)[C@@](C)(OC)C[C@@H](C)C(=O)[C@H](C)[C@@H]2[C@@H]1OC(=O)N2CCCCc1ccnc2ccccc12 [Compound 6220] | ≦0.05 | 3.13 (≈ 4 µM) | ≦0.05 | ≦0.5 | ≦0.05 | 0.4 (≈ 0.512 µM) | 0.1 (≈ 0.128 µM) | 0.1 (≈ 0.128 µM) | 6.25 (≈ 7.99 µM) | ≦0.05 | 1.56 (≈ 1.99 µM) |  |  |  |  |  |  |  |  |  | MIC [7, 21]: 0.1 µg/mL (≈ 0.128 µM); MIC [10, 26]: ≦0.05 |
| CC[C@H]1OC(=O)[C@@](C)(F)C(=O)[C@H](C)[C@@H](OC2O[C@H](C)C[C@H](N(C)C)[C@H]2O)[C@@](C)(OC)C[C@@H](C)C(=O)[C@H](C)[C@H]2N(CCCCc3ccc4ccccc4n3)C(=O)O[C@]12CC (stereo partly drawn) [Example 19, (3aS,4R,7S,9R,10R,11S,13R,15R,15aR)-3a,4-diethyl-7-fluoro-11-methoxy-7,9,11,13,15-pentamethyl-2,6,8,14-tetraoxo-1-(4-quinolin-2-ylbutyl)tetradecahydro-2H-oxacyclotetradecino[4,3-d][1,3]oxazol-10-yl 3,4,6-trideoxy-3-(dimethylamino)-D-xylo-hexopyranoside] |  |  |  |  |  |  |  |  |  |  |  | ≦0.05 | ≦0.05 | 0.1 (≈ 0.121 µM) | 0.4 (≈ 0.483 µM) | 0.4 (≈ 0.483 µM) | 0.4 (≈ 0.483 µM) | 0.4 (≈ 0.483 µM) | 0.4 (≈ 0.483 µM) | 6.25 (≈ 7.55 µM) | MIC [2, 28]: 0.78 µg/mL (≈ 0.942 µM); MIC [5, 31]: ≦0.05; MIC [7, 33]: 0.2 µg/mL (≈ 0.242 µM); MIC [12, 37]: 0.1 µg/mL (≈ 0.121 µM) |
| CC[C@H]1OC(=O)[C@H](C)C(=O)[C@H](C)[C@@H](OC2O[C@H](C)C[C@H](N(C)C)[C@H]2O)[C@@](C)(OC)C[C@@H](C)C(=O)[C@H](C)[C@H]2N(CCCCc3ncc(-c4cccc(N)c4)s3)C(=O)O[C@]12CC (stereo partly drawn) [Example 34, (3aS,4R,7R,9R,10R,11S,13R,15R,15aR)-1-{4-[5-(3-aminophenyl)-1,3-thiazol-2-yl]butyl}-3a,4-diethyl-11-methoxy-7,9,11,13,15-pentamethyl-2,6,8,14-tetraoxotetradecahydro-2H-oxacyclotetradecino[4,3-d][1,3]oxazol-10-yl 3,4,6-trideoxy-3-(dimethylamino)-D-xylo-hexopyranoside] |  |  |  |  |  |  |  |  |  |  |  | ≦0.05 | ≦0.05 | 0.4 (≈ 0.467 µM) | 0.2 (≈ 0.233 µM) | 0.2 (≈ 0.233 µM) | 0.2 (≈ 0.233 µM) | 0.4 (≈ 0.467 µM) | 0.1 (≈ 0.117 µM) | 0.1 (≈ 0.117 µM) | MIC [2, 39]: ≦0.05; MIC ([5]; Table 5, Strain ID F: S. pneumoniae Stpn_49619, unit assumed): 3.13 µg/mL (≈ 3.65 µM); MIC [7, 33]: 12.5 µg/mL (≈ 14.6 µM); MIC [12, 40]: ≦0.05 |
| C/C=C/[C@]12OC(=O)N(CCCCn3cnc(-c4cccnc4)c3)[C@@H]1[C@@H](C)C(=O)[C@H](C)C[C@](C)(OC)[C@H](O[C@@H]1O[C@H](C)C[C@H](N(C)C)[C@H]1O)[C@@H](C)C(=O)[C@@H](C)C(=O)O[C@@H]2CC [65(2), (3aS,4R,7R,9R,10R,11S,13R,15R,15aR)-4-ethyl-11-methoxy-7,9,11,13,15-pentamethyl-2,6,8,14-tetraoxo-3a-[(1E)-prop-1-enyl]-1-[4-(4-pyridin-3-yl-1H-imidazol-1-yl)butyl]tetradecahydro-2H-oxacyclotetradecino[4,3-d][1,3]oxazol-10-yl 3,4,6-trideoxy-3-(dimethylamino)-D-xylo-hexopyranoside] |  |  |  |  |  |  |  |  |  |  |  | ≦0.05 | ≦0.05 | 0.2 (≈ 0.239 µM) | 0.78 (≈ 0.931 µM) | 3.13 (≈ 3.73 µM) | 3.13 (≈ 3.73 µM) | 3.13 (≈ 3.73 µM) | 0.78 (≈ 0.931 µM) | 25 (≈ 29.8 µM) | MIC [2, 28]: 0.78 µg/mL (≈ 0.931 µM); MIC [5, 31]: ≦0.05; MIC [7, 33]: 0.4 µg/mL (≈ 0.477 µM); MIC [12, 37]: 0.2 µg/mL (≈ 0.239 µM) |
| CC[C@H]1OC(=O)[C@H](C)C(=O)[C@H](C)[C@@H](OC2O[C@H](C)C[C@H](N(C)C)[C@H]2O)[C@@](C)(OC)C[C@@H](C)C(=O)[C@H](C)[C@H]2N(CCCCn3cc(-c4cccnc4)nc3C)C(=O)O[C@]12CC (stereo partly drawn) [Example 20, (3aS,4R,7R,9R,10R,11S,13R,15R,15aR)-3a,4-diethyl-11-methoxy-7,9,11,13,15-pentamethyl-1-[4-(2-methyl-4-pyridin-3-yl-1H-imidazol-1-yl)butyl]-2,6,8,14-tetraoxotetradecahydro-2H-oxacyclotetradecino[4,3-d][1,3]oxazol-10-yl 3,4,6-trideoxy-3-(dimethylamino)-D-xylo-hexopyranoside] |  |  |  |  |  |  |  |  |  |  |  | ≦0.05 | ≦0.05 |  | 0.4 (≈ 0.476 µM) | 0.2 (≈ 0.238 µM) | 0.1 (≈ 0.119 µM) | 0.2 (≈ 0.238 µM) | 0.1 (≈ 0.119 µM) | 6.25 (≈ 7.44 µM) | MIC [2, 39]: ≦0.5; MIC ([4]; Table 5, Strain ID L: S. pneumoniae Stpn_Mef S 3427): ≦0.05; MIC [5, 31]: ≦0.05; MIC ([7]; Table 5, Strain ID J: S. pneumoniae Stpn_Erm S 4297): ≦0.05; MIC [12, 40]: ≦0.05 |
